Read-outs that look alike come from different tables or passages of the source. Residues, ends and D or L forms follow the SMILES beside them.
Tests used:
[1] = brush border membrane (BBM) stability assay; format: in vitro ADME, human; conditions: brush border membrane extract (e.g. kidney)
Protocol: Some exemplary NMX Peptides and FNX Peptides were tested for stability in a brush border membrane (BBM) assay as described herein. To determine the enzymatic stability of peptide hormones peptides are incubated with a preparation of human brush border membranes extract (e.g., kidney), and the stability of the peptide is determined by measuring concentration of the intact peptide at specific intervals. The brush border membrane extract contains dipeptidyl peptidase IV (DPP-IV), neutral endopeptidases, peptidyl-dipeptidase A, carboxypeptidases and aminopeptidases. These are the primary enzymes that degrade peptides in vivo and are found in the kidneys, liver, lungs and pancreas. Resistance against these human proteases would increase peptide half-life. In the BBM assay test peptide was subjected to digestion over a period of five (5) hours with human brush border membrane extracts, e.g. kidney, at 37° C. At desired timepoints digestion was stopped by addition of quench solution, typically 50% ACN, 1% FA. After centrifugation to remove membrane debris, supernatant was subjected to mass spectrometry using a selected ion scan for the intact molecule of interest. Values are expressed as a percent of stable. A value of at least 80 or greater is regarded as an extremely stable molecule. A value of at least 70 or greater is a molecule with significant stability.

NIH/Swiss mice = test: acute food intake assay, lean overnight-fasted NIH/Swiss mice, intraperitoneal injection; format: in vivo, mouse; conditions: for Food Intake Inhibition: mouse assay, dose of 200 mg/kg, measured at 60 minutes
Protocol: The effect of NMX Peptides, FNX Peptides or NMX Receptor agonists on food intake when systemically administered was investigated using an acute food intake assay. This assay measured food consumption in lean subjects. Lean, group-housed, overnight-fasted NIH/Swiss mice. All in vivo tests were performed with peripheral injections of peptide. […] The dose-response data are presented herein. The protocol is described below. Female NIH/Swiss mice (8-24 weeks old) were group housed with a 12:12 hour light:dark cycle, with lights on at 0300. Water and a standard pelleted mouse chow diet are available ad libitum, except as noted. Animals are fasted starting at approximately 1530 hrs, 1 day prior to experiment. At time=0 min, all animals are given an intraperitoneal injection of vehicle or polypeptide in a volume of 200 uL/mouse and immediately given a pre-weighed amount (10-15 g) of the standard chow. Food is removed and weighed at 30, 60, and 120 minutes to determine the amount of food consumed. The effects of treatment on food intake are expressed as % change relative to control.

[2] = percent compound remaining after a 5 hour incubation, human brush border membrane assay, read-out: hBBM

Structure (SMILES) | remaining at 5 h ([1]; percent of stable, human brush border membrane extracts, five hours, 37° C., read-out: BBM) [%] | remaining at 5 h [1, 2] [%] | FI (60′, 200) (NIH/Swiss mice; food intake, % change relative to control, 60 min, dose 200) [%] | Food Intake Inhibition (NIH/Swiss mice) [%]
CC(C)C[C@H](NC(=O)[C@H](CCCCN)NC(=O)[C@H](CCC(N)=O)NC(=O)[C@@H](NC(=O)[C@H](CCCCN)NC(=O)[C@H](CO)NC(=O)[C@H](Cc1ccc(O)cc1)NC(=O)[C@H](Cc1c[nH]cn1)NC(=O)[C@H](Cc1ccccc1)NC(=O)[C@H](CC(C)C)NC(=O)[C@@H](N)Cc1ccccc1)[C@@H](C)O)C(=O)NCC(=O)N[C@@H](CCCCN)C(=O)N[C@@H](CO)C(=O)N[C@@H](CC(N)=O)C(=O)N[C@H](C(=O)N[C@H](C(=O)N[C@@H](CCC(=O)O)C(=O)N[C@@H](CCC(=O)O)C(=O)N[C@@H](CC(C)C)C(=O)N[C@@H](CCC(N)=O)C(=O)N[C@@H](CO)C(=O)N1CCC[C@H]1C(=O)N[C@@H](Cc1ccccc1)C(=O)N[C@@H](C)C(=O)N[C@@H](CO)C(=O)N[C@@H](CCC(N)=O)C(=O)N[C@@H](CO)C(=O)N[C@@H](CCCNC(=N)N)C(=O)NCC(N)=O)C(C)C)C(C)C [Compound 165062] (H-FLFHYSKTQKLGKSNVVEELQSPFASQSRG-NH2; N-terminus assumed) | 40 | – | 0 | –
CC(C)C[C@H](NC(=O)[C@H](CCCCN)NC(=O)[C@H](CCC(N)=O)NC(=O)[C@@H](NC(=O)[C@H](CCCCN)NC(=O)[C@H](CO)NC(=O)[C@@H](N)Cc1ccc(O)cc1)[C@@H](C)O)C(=O)NCC(=O)N[C@@H](CCCCN)C(=O)N[C@@H](CO)C(=O)N[C@@H](CC(N)=O)C(=O)N[C@H](C(=O)N[C@H](C(=O)N[C@@H](CCC(=O)O)C(=O)N[C@@H](CCC(=O)O)C(=O)N[C@@H](CC(C)C)C(=O)N[C@@H](CCC(N)=O)C(=O)N[C@@H](CO)C(=O)N1CCC[C@H]1C(=O)N[C@@H](Cc1ccccc1)C(=O)N[C@@H](C)C(=O)N[C@@H](CO)C(=O)N[C@@H](CCC(N)=O)C(=O)N[C@@H](CO)C(=O)N[C@@H](CCCNC(=N)N)C(=O)NCC(=O)N[C@@H](Cc1ccc(O)cc1)C(=O)N[C@@H](Cc1ccccc1)C(=O)N[C@@H](CC(C)C)C(=O)N[C@@H](Cc1ccccc1)C(=O)N[C@@H](CCCNC(=N)N)C(=O)N1CCC[C@H]1C(=O)N[C@@H](CCCNC(=N)N)C(=O)N[C@@H](CC(N)=O)C(N)=O)C(C)C)C(C)C [Des-(Phe1,Leu2,Phe3,His4)FN38] (H-YSKTQKLGKSNVVEELQSPFASQSRGYFLFRPRN-NH2; N-terminus assumed) | – | 41 | – | −58
CC(C)C[C@H](NC(=O)[C@H](CCC(=O)O)NC(=O)[C@H](CCC(=O)O)NC(=O)[C@@H](NC(=O)[C@@H](NC(=O)[C@H](CC(N)=O)NC(=O)[C@H](CO)NC(=O)[C@H](CCCCN)NC(=O)CNC(=O)[C@H](CC(C)C)NC(=O)[C@@H](N)CCCCN)C(C)C)C(C)C)C(=O)N[C@@H](CCC(N)=O)C(=O)N[C@@H](CO)C(=O)N1CCC[C@H]1C(=O)N[C@@H](Cc1ccccc1)C(=O)N[C@@H](C)C(=O)N[C@@H](CO)C(=O)N[C@@H](CCC(N)=O)C(=O)N[C@@H](CO)C(=O)N[C@@H](CCCNC(=N)N)C(=O)NCC(=O)N[C@@H](Cc1ccc(O)cc1)C(=O)N[C@@H](Cc1ccccc1)C(=O)N[C@@H](CC(C)C)C(=O)N[C@@H](Cc1ccccc1)C(=O)N[C@@H](CCCNC(=N)N)C(=O)N1CCC[C@H]1C(=O)N[C@@H](CCCNC(=N)N)C(=O)N[C@@H](CC(N)=O)C(N)=O [Des-(Phe1-Gln9)FN38] (H-KLGKSNVVEELQSPFASQSRGYFLFRPRN-NH2; N-terminus assumed) | – | 55 | – | −70

More lines, main results first:

remaining at 5 h ([1]; percent of stable, human brush border membrane extracts, five hours, 37° C., read-out: BBM) [%] | remaining at 5 h [1, 2] [%] | Structure (SMILES) | FI (60′, 200) (NIH/Swiss mice; food intake, % change relative to control, 60 min, dose 200) [%] | Food Intake Inhibition (NIH/Swiss mice) [%]
– | 61 | CC(C)C[C@H](NC(=O)[C@H](CCCCN)NC(=O)[C@H](CCC(N)=O)NC(=O)[C@@H](NC(=O)[C@H](CCCCN)NC(=O)[C@H](CO)NC(=O)[C@H](Cc1ccc(O)cc1)NC(=O)[C@H](Cc1c[nH]cn1)NC(=O)[C@H](Cc1ccccc1)NC(=O)[C@H](CC(C)C)NC(=O)[C@@H](N)Cc1ccccc1)[C@@H](C)O)C(=O)NCC(=O)N[C@@H](CCCCN)C(=O)N[C@@H](CO)C(=O)N[C@@H](CC(N)=O)C(=O)N[C@H](C(=O)N[C@H](C(=O)N[C@@H](CCC(=O)O)C(=O)N[C@@H](CCC(=O)O)C(=O)N[C@@H](CC(C)C)C(=O)N[C@@H](CCC(N)=O)C(=O)N[C@@H](CO)C(=O)N1CCC[C@H]1C(=O)N[C@@H](CO)C(=O)N[C@@H](CCCNC(=N)N)C(=O)NCC(=O)N[C@@H](Cc1ccc(O)cc1)C(=O)N[C@@H](Cc1ccccc1)C(=O)N[C@@H](CC(C)C)C(=O)N[C@@H](Cc1ccccc1)C(=O)N[C@@H](CCCNC(=N)N)C(=O)N1CCC[C@H]1C(=O)N[C@@H](CCCNC(=N)N)C(=O)N[C@@H](CC(N)=O)C(N)=O)C(C)C)C(C)C [Des-(Phe24,Ala25,Ser26,Gln27)-FN38] (H-FLFHYSKTQKLGKSNVVEELQSPSRGYFLFRPRN-NH2; N-terminus assumed) | – | −83
– | 28 | CC(C)C[C@H](NC(=O)[C@H](CCCCN)NC(=O)[C@H](Cc1ccc(O)cc1)NC(=O)[C@H](Cc1c[nH]cn1)NC(=O)[C@H](Cc1ccccc1)NC(=O)[C@H](CC(C)C)NC(=O)[C@@H](N)Cc1ccccc1)C(=O)NCC(=O)N[C@@H](CCCCN)C(=O)N[C@@H](CO)C(=O)N[C@@H](CC(N)=O)C(=O)N[C@H](C(=O)N[C@H](C(=O)N[C@@H](CCC(=O)O)C(=O)N[C@@H](CCC(=O)O)C(=O)N[C@@H](CC(C)C)C(=O)N[C@@H](CCC(N)=O)C(=O)N[C@@H](CO)C(=O)N1CCC[C@H]1C(=O)N[C@@H](Cc1ccccc1)C(=O)N[C@@H](C)C(=O)N[C@@H](CO)C(=O)N[C@@H](CCC(N)=O)C(=O)N[C@@H](CO)C(=O)N[C@@H](CCCNC(=N)N)C(=O)NCC(=O)N[C@@H](Cc1ccc(O)cc1)C(=O)N[C@@H](Cc1ccccc1)C(=O)N[C@@H](CC(C)C)C(=O)N[C@@H](Cc1ccccc1)C(=O)N[C@@H](CCCNC(=N)N)C(=O)N1CCC[C@H]1C(=O)N[C@@H](CCCNC(=N)N)C(=O)N[C@@H](CC(N)=O)C(N)=O)C(C)C)C(C)C [Des-(Ser6,Lys7,Thr8,Gln9)FN38] (H-FLFHYKLGKSNVVEELQSPFASQSRGYFLFRPRN-NH2; N-terminus assumed) | – | −72
– | 73 | CC(C)C[C@H](NC(=O)[C@H](CCCCN)NC(=O)[C@H](CCC(N)=O)NC(=O)[C@@H](NC(=O)[C@H](CCCCN)NC(=O)[C@H](CO)NC(=O)[C@H](Cc1ccc(O)cc1)NC(=O)[C@H](Cc1c[nH]cn1)NC(=O)[C@H](Cc1ccccc1)NC(=O)[C@H](CC(C)C)NC(=O)[C@@H](N)Cc1ccccc1)[C@@H](C)O)C(=O)NCC(=O)N[C@@H](CCCCN)C(=O)N[C@@H](CO)C(=O)N[C@@H](CC(N)=O)C(=O)N[C@@H](CCC(=O)O)C(=O)N[C@@H](CCC(=O)O)C(=O)N[C@@H](CC(C)C)C(=O)N[C@@H](CCC(N)=O)C(=O)N[C@@H](CO)C(=O)N1CCC[C@H]1C(=O)N[C@@H](Cc1ccccc1)C(=O)N[C@@H](C)C(=O)N[C@@H](CO)C(=O)N[C@@H](CCC(N)=O)C(=O)N[C@@H](CO)C(=O)N[C@@H](CCCNC(=N)N)C(=O)NCC(=O)N[C@@H](Cc1ccc(O)cc1)C(=O)N[C@@H](Cc1ccccc1)C(=O)N[C@@H](CC(C)C)C(=O)N[C@@H](Cc1ccccc1)C(=O)N[C@@H](CCCNC(=N)N)C(=O)N1CCC[C@H]1C(=O)N[C@@H](CCCNC(=N)N)C(=O)N[C@@H](CC(N)=O)C(N)=O [Des-Val16,Val17-FN38] (H-FLFHYSKTQKLGKSNEELQSPFASQSRGYFLFRPRN-NH2; N-terminus assumed) | – | −60

Reference: US20090209460A1, “COMPOSITIONS AND METHODS FOR TREATING OBESITY AND RELATED METABOLIC DISORDERS” (Amylin Pharmaceuticals, Inc., priority 2005, published 2009)
